Entries after “also recorded” stand apart in the source; their conditions may differ.
Key:
male ICR mice = test: Elevated plus maze (EPM) test, intraperitoneal injection; type: in vivo, mouse; settings: for Open-arm residence times and entries compared with BAF: Tables 3 and 4, statistical differences at a low dose; for Efficacy compared with BAF: at low doses; for Closed arm number of entries / Closed arm residence time / Open arm number of entries / Open arm residence time / Open arm/closed arm frequency ratio / Open arm/closed arm time ratio: mice, intraperitoneal, 5 min before entering the maze
Source text: The active ingredient used in the following pharmacological experiment, the compound shown in Formula (I) of the present application, is the final product in Example 1 of the present application, namely (1R,6S,9R)6,10,10-trimethyl-2-(4,4,4-trifluorobutyl)-11-oxatricyclo [7.2.1.0^1,6]dodec-2-ene (hereinafter referred to as Compound 2). Compound 2 and an excipient PVP (povidone K30) were mixed in an ethanol solution in a mass ratio of 1:15, spin-dried, and prepared into a preparation form of Compound 2 (the following Compound 2 refers to the preparation form of Compound 2). The preparation form of which the active ingredient was 4-butyl-α-agarofuran (BAF for short) was used as a positive drug, a preparation method for this preparation was the same as that of the preparation of Compound 2, and the following BAF refers to this preparation of BAF. PVP was a blank control. In addition, the administration dose was calculated according to a crude drug.
This model is one of the most commonly used animal models in the research of antianxiety drugs. The elevated plus maze is composed of an open arm (30×5×0.5 cm) and an closed arm (30×8×15 cm) that are crossed in a positive cross shape, and the instrument is suspended 50 cm above the ground. Due to the narrowness, suspension, and brightness of the open arm, there may be internal “fear” or conflict in the open arm, and on the contrary, it more complies with the nature of rodents in the closed arm. 5 min after administration, a mouse is placed in the center of the maze, and its head faces to the open arm. Open-arm and closed-arm entries and residence times in both arms during the experimental period (usually 5 min) are recorded respectively. The percentages of the open arm entries and the open arm residence times respectively accounting for the total entries (sum of the open arm and closed arm entries) and the total time (sum of the open arm and closed arm residence times) are calculated, as an indicator for evaluating the anxiety. Generally speaking, a drug is considered to have antianxiety effects in the case that the open arm cumulative residence time is prolonged without reducing the open arm and closed arm entries.
The experiment used male Institute of Cancer Research (ICR) mice (purchased from Beijing Weitong Lihua Experimental Animal Technology Co., Ltd.), the weight was 18-20 g, the mice were randomly divided into 7 groups according to the weight, and there were 13 mice in each group. Grip adaptation training was conducted on the mice before the experiment. Before the experiment, the mice were fasted for 12 hours. It was administered by an intraperitoneal injection mode. 4-butyl-α-agarofuran (BAF for short) was used as a positive drug, and PVP was a blank control. The specific grouping and disposal modes are as follows:
During detection, after intraperitoneal injection of BAF/Compound 2, each mouse was immediately placed in an open animal box and allowed to move freely for 5 min, then the mouse was placed on a central platform of the elevated plus maze, its head faced to a fixed open arm. The detection was started, timed for 5 min, and recorded with a supermaze software by using a camera head. After all the experiments were completed, the residence times (s) of the mice in the open arm and the closed arm, the open arm and closed arm entries, and the time ratios and frequency ratios of the open arm and closed arm entries were recorded with the supermaze software. 1 was added to the number of entry arms with a latency of 0.

[1] = Plasma pharmacokinetics after intraperitoneal injection in mouse (UPLC-MS/MS); type: in vivo; settings: for AUC(0-t) / half-life / Cmax: male, ICR; for AUC(0-t) / half-life: plasma; for AUC(0-t): 10 mg/kg, according to the above method, read-out: AUC(0-t); for AUC(0-t) / half-life / Pharmacokinetic properties compared with BAF: mouse; for AUC(0-t) / Pharmacokinetic properties compared with BAF: IP; for half-life / Cmax: IP 10 mg/kg; for Cmax: mouse plasma, prototype drug
Protocol: Positive control drug 4-butyl-α-agarofuran preparation (BAF) and Compound 2 preparation were administered intraperitoneally at a dose of 10 mg/kg/10 ml (calculated according to the crude drug), and a suspension was prepared by ultrasonic grinding with double distilled water. Male ICR mice, with a weight of 21-24 g, were purchased from SPF (Beijing) Biotechnology Co., Ltd.
12 mice were randomly divided into 4 groups, there were 3 parallel cross blood sampling points in each group (5 points in groups 1 and 3, and 6 points in groups 2 and 4), it was administered according to the weight, and blood was collected from the orbital venous plexus at 5 min, 10 min, […], 30 min, 1 h, 2 h, 4 h, 6 h, 8 h, 12 h, and 24 h after administration. The bloods at each time point were collected into Eppendorf (EP) tubes anticoagulated with heparin, and placed on ice and centrifuged at 8000 r/min×5 min, to separate plasma for later use.
20 μl of mouse blank plasma was taken, 55 μl of acetonitrile containing an internal standard solution (200 ng/mL, BAF crude drug and Compound 2 crude drug are mutual internal standards, namely BAF was used as the internal standard of Compound 2, and Compound 2 was used as the internal standard of BAF, similarly hereinafter) is added, 5 μl of a methanol working solution of the compound BAF or Compound 2 with different concentrations was respectively added and mixed uniformly, so that its final plasma concentrations were 0.2, 0.5, 2, 5, 10, 25, 50, 100, 200, 500, 750, and 1000 ng/ml respectively, centrifugation was conducted twice at a high speed of 13000 r/min×5 min, and 5 μl of a supernatant was taken for UPLC-MS/MS analysis.
10 μL of plasma was taken, 30 μL of acetonitrile containing internal standard solution (100 ng/mL) was added to precipitate proteins, after the material was centrifuged twice at a high speed of 13000 r/min×5 min, 5 μl of a supernatant was taken for UPLC-MS/MS analysis.
Chromatographic column: Symmetry C8 (2.1 mm×50 mm, 3.5 μm), column temperature: 25° C., mobile phase: acetonitrile (0.1% formic acid): water (0.1% formic acid)=70:30 gradient elution, flow rate: 0.2 mL/min, Parallel Reaction Monitoring (PRM) detection, BAF: m/z 263.2→245.2; and Compound 2: m/z 317.2→299.2.

Structure (SMILES) | Open-arm residence times and entries compared with BAF (male ICR mice) | Efficacy compared with BAF (male ICR mice) | Closed arm number of entries (male ICR mice; 2.4 mg/kg) | Closed arm residence time (male ICR mice; 2.4 mg/kg) [s] | Open arm number of entries (male ICR mice; 2.4 mg/kg) | Open arm residence time (male ICR mice; 2.4 mg/kg) [s] | Open arm/closed arm frequency ratio (male ICR mice; 2.4 mg/kg) | Open arm/closed arm time ratio (male ICR mice; 2.4 mg/kg) | Closed arm number of entries (male ICR mice; 4.8 mg/kg) | Closed arm residence time (male ICR mice; 4.8 mg/kg) [s] | Open arm number of entries (male ICR mice; 4.8 mg/kg) | Open arm residence time (male ICR mice; 4.8 mg/kg) [s] | Open arm/closed arm frequency ratio (male ICR mice; 4.8 mg/kg) | Open arm/closed arm time ratio (male ICR mice; 4.8 mg/kg) | Closed arm number of entries (male ICR mice; 9.6 mg/kg) | Closed arm residence time (male ICR mice; 9.6 mg/kg) [s] | Open arm number of entries (male ICR mice; 9.6 mg/kg) | Open arm residence time (male ICR mice; 9.6 mg/kg) [s] | Open arm/closed arm frequency ratio (male ICR mice; 9.6 mg/kg) | Open arm/closed arm time ratio (male ICR mice; 9.6 mg/kg) | further results
[2H]C1[C@H]2CC[C@]3(C)CC([2H])([2H])C=C(CCCC(F)(F)F)[C@@]13OC2(C)C (stereo partly drawn) [Compound 8, (1R,6R,9R)6,10,10-trimethyl-2-(4,4,4-trifluorobutyl)-4,4,10-trideuterium-11-oxatricyclo [7.2.1.0^1,6]dodec-2-ene] | prolonged | better efficacy | 10.86 ± 1.30 | 126.36 ± 11.90 | 9.43 ± 0.78 | 134.90 ± 9.73 | 0.93 ± 0.10 | 1.20 ± 0.26 | 10.00 ± 0.63 | 147.85 ± 10.01 | 9.10 ± 0.87 | 117.97 ± 8.25 | 0.93 ± 0.10 | 0.88 ± 0.14 | 10.00 ± 1.20 | 139.21 ± 14.30 | 8.70 ± 0.94 | 112.96 ± 9.69 | 0.90 ± 0.07 | 0.93 ± 0.16 | AUC(0-t) [1]: 148 ng·h/mL; half-life [1]: 1.41 h; Cmax [1]: 350 ng/mL; Pharmacokinetic properties compared with BAF [1]: superior to BAF; also recorded: better pharmacokinetic properties
CC1(C)O[C@]23C[C@H]1CC[C@]2(C)CCC=C3CCCCC(F)(F)F [Compound 6, (1R,6S,9R)6,10,10-trimethyl-2-(5,5,5-trifluoropentyl)-11-oxatricyclo [7.2.1.0^1,6]dodec-2-ene] | prolonged | better efficacy | 11.00 ± 0.83 | 129.22 ± 9.33 | 9.11 ± 0.54 | 126.19 ± 8.01 | 0.86 ± 0.07 | 0.98 ± 0.15 | 10.00 ± 0.60 | 154.33 ± 7.85 | 8.88 ± 0.55 | 116.53 ± 6.42 | 0.90 ± 0.05 | 0.78 ± 0.07 | 8.56 ± 1.19 | 140.04 ± 15.48 | 8.78 ± 1.53 | 111.29 ± 11.05 | 1.06 ± 0.13 | 0.91 ± 0.17 | AUC(0-t) [1]: 142 ng·h/mL; half-life [1]: 1.39 h; Cmax [1]: 342 ng/mL; Pharmacokinetic properties compared with BAF [1]: superior to BAF; also recorded: better pharmacokinetic properties
